According to patent US9718804B2, “GSK-3 inhibitors” (BRISTOL-MYERS SQUIBB COMPANY, priority 2013, dated 2017):
Like-named read-outs stand apart in the source and are kept apart here.

Legend:
GSK3α = GSK3α (Homo sapiens, UniProt P49840); experiment: GSK3α kinase assay (Caliper LabChip, fluoresceinated peptide substrate); format: biochemical
Summary of the method: (§1)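 Eleven-point compound titrations (10 mM DMSO stocks) incubated with kinase and fluorescent peptide for 20 h at room temperature before EDTA quench. Substrate-to-product conversion measured by microfluidic mobility shift; IC50 from non-linear fitting.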

GSK3β = GSK3β (Homo sapiens, UniProt P49841); experiment: GSK3β kinase assay (Caliper LabChip, fluoresceinated peptide substrate); format: biochemical
Chain of GSK3β (P49841 whole entry, species assumed): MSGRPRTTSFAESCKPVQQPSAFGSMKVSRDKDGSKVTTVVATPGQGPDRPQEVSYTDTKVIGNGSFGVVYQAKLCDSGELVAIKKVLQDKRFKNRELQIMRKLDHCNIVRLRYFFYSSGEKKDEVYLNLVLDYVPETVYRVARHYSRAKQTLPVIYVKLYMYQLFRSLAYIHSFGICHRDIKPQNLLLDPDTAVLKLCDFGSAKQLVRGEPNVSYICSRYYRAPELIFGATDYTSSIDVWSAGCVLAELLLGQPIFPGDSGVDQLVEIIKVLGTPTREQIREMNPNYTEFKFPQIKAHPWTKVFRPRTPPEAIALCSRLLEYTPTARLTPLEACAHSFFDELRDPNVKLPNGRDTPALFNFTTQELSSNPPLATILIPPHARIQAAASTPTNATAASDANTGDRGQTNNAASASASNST
Summary of the method: as §1

pTau = pTau assay (no method described); format: cell-based
[1] = first value of the cell, 250 pM enzyme, 20 uM ATP, 20 hours at room temperature, read-out: GSK3β/α (nM): GSK3β IC50

Chain of GSK3α (P49840 whole entry, species assumed): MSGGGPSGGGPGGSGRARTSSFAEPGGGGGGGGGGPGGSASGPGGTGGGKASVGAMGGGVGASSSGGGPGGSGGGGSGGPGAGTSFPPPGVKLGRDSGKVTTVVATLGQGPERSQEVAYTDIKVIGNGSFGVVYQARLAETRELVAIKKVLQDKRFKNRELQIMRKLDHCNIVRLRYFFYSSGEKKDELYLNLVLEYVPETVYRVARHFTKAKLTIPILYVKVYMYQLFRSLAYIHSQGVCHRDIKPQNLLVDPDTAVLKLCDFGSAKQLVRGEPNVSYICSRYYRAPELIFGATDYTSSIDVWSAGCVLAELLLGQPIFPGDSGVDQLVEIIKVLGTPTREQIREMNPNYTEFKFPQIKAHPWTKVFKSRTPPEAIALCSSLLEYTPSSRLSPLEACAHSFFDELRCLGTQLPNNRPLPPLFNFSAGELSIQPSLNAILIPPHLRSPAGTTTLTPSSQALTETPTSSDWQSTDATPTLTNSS

Compound	IC50 (GSK3α)	IC50 (GSK3β; [1])	IC50 (pTau)	IC50 (GSK3α; second value of the cell, 250 pM enzyme, 20 uM ATP, 20 hours at room temperature, read-out: GSK3β/α (nM): GSK3α IC50)	IC50 (GSK3β)
O=C(Nc1cnccc1OCCN1CCCC1)c1ccnc(Nc2ccc(C(F)(F)F)cn2)c1 [Example 46, N-(4-(2-(Pyrrolidin-1-yl)ethoxy)pyridin-3-yl)-2-((5-(trifluoromethyl)pyridin-2-yl)amino)isonicotinamide]	75 nM	150 nM	4300 nM	–	–
O=C(Nc1cncc(-c2cc(F)ccc2F)c1)c1ccnc(Nc2cccc(C(F)(F)F)n2)c1 [Example 146, N-(5-(2,5-Difluorophenyl)pyridin-3-yl)-2-((6-(trifluoromethyl)pyridin-2-yl)amino)isonicotinamide]	3.2 nM	5.1 nM	1400 nM	–	–
CC1(c2cc(OCCO)ncc2NC(=O)c2ccnc(Nc3ccc(C(F)(F)F)cn3)c2)OCCO1 [Example 84, N-(6-(2-Hydroxyethoxy)-4-(2-methyl-1,3-dioxolan-2-yl)pyridin-3-yl)-2-((5-(trifluoromethyl)pyridin-2-yl)amino)isonicotinamide]	5 nM	9.2 nM	350 nM	–	–
CCC1(c2cc(Cl)ncc2NC(=O)c2ccnc(Nc3ccc(C)cn3)c2)OCCO1 [Example 109, N-(6-Chloro-4-(2-ethyl-1,3-dioxolan-2-yl)pyridin-3-yl)-2-((5-methylpyridin-2-yl)amino)isonicotinamide]	–	–	45 nM	1.2 nM	1.8 nM
O=C(Nc1cnc(F)cc1OCC(F)(F)F)c1ccnc(Nc2ccc(Cl)cn2)c1 [Example 110, 2-((5-Chloropyridin-2-yl)amino)-N-(6-fluoro-4-(2,2,2-trifluoroethoxy)pyridin-3-yl)isonicotinamide]	0.51 nM	3.8 nM	170 nM	–	–
CC(C)(C)COc1cc(F)ncc1NC(=O)c1ccnc(Nc2ccc(C(F)(F)F)cn2)c1 [Example 75, N-(6-Fluoro-4-(neopentyloxy)pyridin-3-yl)-2-((5-(trifluoromethyl)pyridin-2-yl)amino)isonicotinamide]	2.4 nM	5.1 nM	830 nM	–	–
O=C(Nc1cncc(-n2ccc(C(F)(F)F)n2)c1)c1ccnc(Nc2ccc(C(F)(F)F)cn2)c1 [Example 120, N-(5-(3-(Trifluoromethyl)-1H-pyrazol-1-yl)pyridin-3-yl)-2-((5-(trifluoromethyl)pyridin-2-yl)amino)isonicotinamide]	14 nM	29 nM	1500 nM	–	–
O=C(Nc1cnccc1SCC(F)(F)F)c1ccnc(Nc2ccc(C(F)(F)F)cn2)c1 [Example 171, N-(4-((2,2,2-Trifluoroethyl)thio)pyridin-3-yl)-2-((5-(trifluoromethyl)pyridin-2-yl)amino)isonicotinamide]	0.61 nM	1.2 nM	47 nM	–	–
O=C(Nc1cnc(F)cc1OCC(F)F)c1ccnc(Nc2ccc(F)cn2)c1 [Example 114, N-(4-(2,2-Difluoroethoxy)-6-fluoropyridin-3-yl)-2-((5-fluoropyridin-2-yl)amino)isonicotinamide]	1.5 nM	4.4 nM	220 nM	–	–
CC(O)c1c(NC(=O)c2ccnc(Nc3ccc(C(F)(F)F)cn3)c2)cnn1C (stereo not drawn) [Example 208, N-(5-(1-Hydroxyethyl)-1-methyl-1H-pyrazol-4-yl)-2-((5-(trifluoromethyl)pyridin-2-yl)amino)isonicotinamide]	3.6 nM	3 nM	120 nM	–	–
O=C(Nc1cnccc1S(=O)(=O)c1ccccc1)c1ccnc(Nc2ccc(C(F)(F)F)cn2)c1 [Example 183, N-(4-(Phenylsulfonyl)pyridin-3-yl)-2-((5-(trifluoromethyl)pyridin-2-yl)amino)isonicotinamide]	0.75 nM	2.2 nM	200 nM	–	–
N#CC1(c2ccc(Nc3cc(C(=O)Nc4cnccc4-c4ccccc4)ccn3)nc2)CC1 [Example 62, 2-((5-(1-Cyanocyclopropyl)pyridin-2-yl)amino)-N-(4-phenylpyridin-3-yl)isonicotinamide]	0.29 nM	0.62 nM	37 nM	–	–
